The source of these data is the supplement of paper PMC6045584.

± gives the standard deviation of the averaged measurements.

Compound in test [1]: CCc1cc(Nc2nccc(-c3c(-c4ccc(OC)c(C(=O)Nc5c(F)cccc5F)c4)nc4ccccn34)n2)c(OC)cc1N1CCC(N2CCN(S(C)(=O)=O)CC2)CC1
Kind of test: surviving fraction relative to DMSO-only wells; higher = less growth inhibition. Particulars: exposure time: 5 days. Summed up: (§1)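 Tumour cell lines were grown to log phase and seeded at 250–500 cells per well in 384-well plates. They were exposed continuously to inhibitors at 0.5, 1, 5, 10, 50, 100, 500 and 1000 nM for five days, beginning 24 hours after seeding. Surviving fraction is CellTiter-Glo luminescence normalised to the median of DMSO-only wells.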

Compound in a further test: Cn1ncnc1[C@H]1c2n[nH]c(=O)c3cc(F)cc(c23)N[C@@H]1c1ccc(F)cc1 [BMN-673]
The description is as above. The following applies: exposure time: 5 days. Summed up:
as §1

Consider RDES SOFT TISSUE, for which the surviving fraction in test [1] (0.5 nM) was determined as 1.25 ± 0.081; in test [1] (1 nM) it was 1.13 ± 0.14; in test [1] (5 nM), 1.19 ± 0.15; in test [1] (10 nM), 1.2 ± 0.043; in test [1] (50 nM), 0.998 ± 0.2; in test [1] (100 nM), 1.09 ± 0.043. Also, the surviving fraction in test [1] (500 nM) came to 0.924 ± 0.1; in test [1] (1000 nM) it was 1.25 ± 0.21; with BMN-673 (0.5 nM) it was 1.16 ± 0.1; in the test with BMN-673 (1 nM), 1.38 ± 0.055; with BMN-673 (5 nM), 1.07 ± 0.022; in the test with BMN-673 (10 nM), 1.09 ± 0.093. For the same test system, the surviving fraction in the test with BMN-673 (50 nM) was 0.472 ± 0.077; with BMN-673 (100 nM) it was 0.137 ± 0.011; with BMN-673 (500 nM), 0.035 ± 0.001; in the test with BMN-673 (1000 nM) it was 0.0337 ± 0.0025.

In the case of OSHN BONE, the surviving fraction in test [1] (0.5 nM) came to 1.02 ± 0.018; in test [1] (1 nM) it was 1.04 ± 0.036; in test [1] (5 nM), 1.03 ± 0.038; in test [1] (10 nM) it was 1.06 ± 0.034; in test [1] (50 nM) it was 1.02 ± 0.033; in test [1] (100 nM), 1.05 ± 0.04. The surviving fraction amounted to 1.01 ± 0.023 in test [1] (500 nM); 1.04 ± 0.048 in test [1] (1000 nM); 1.08 ± 0.024 in the test with BMN-673 (0.5 nM); 1.04 ± 0.016 with BMN-673 (1 nM); 0.996 ± 0.023 with BMN-673 (5 nM); 0.9107 ± 0.004 in the test with BMN-673 (10 nM). In addition, the surviving fraction in the test with BMN-673 (50 nM) was determined as 0.742 ± 0.011; in the test with BMN-673 (100 nM), 0.573 ± 0.081; with BMN-673 (500 nM) it was 0.197 ± 0.012; with BMN-673 (1000 nM) it was 0.145 ± 0.009.

Regarding CAL120 BREAST, the surviving fraction in test [1] (0.5 nM) stood at 0.944 ± 0.013; in test [1] (1 nM), 0.9663 ± 0.0055; in test [1] (5 nM), 0.968 ± 0.013; in test [1] (10 nM), 0.976 ± 0.032; in test [1] (50 nM), 0.976 ± 0.032; in test [1] (100 nM), 0.977 ± 0.024. For the same test system, the surviving fraction in test [1] (500 nM) was determined as 0.944 ± 0.031; in test [1] (1000 nM) it was 0.945 ± 0.021; in the test with BMN-673 (0.5 nM) it was 0.968 ± 0.033; in the test with BMN-673 (1 nM), 0.915 ± 0.067; with BMN-673 (5 nM) it was 0.798 ± 0.05; with BMN-673 (10 nM), 0.676 ± 0.035. Besides, the surviving fraction worked out at 0.591 ± 0.014 with BMN-673 (50 nM), 0.506 ± 0.062 in the test with BMN-673 (100 nM), 0.43 ± 0.021 with BMN-673 (500 nM) and 0.425 ± 0.035 with BMN-673 (1000 nM).

For C33A CERVIX, the surviving fraction in test [1] (0.5 nM) worked out at 0.755 ± 0.047; in test [1] (1 nM), 0.874 ± 0.086; in test [1] (5 nM), 1 ± 0.057; in test [1] (10 nM), 0.892 ± 0.11; in test [1] (50 nM), 1.01 ± 0.11; in test [1] (100 nM) it was 0.952 ± 0.031. Moreover, the surviving fraction in test [1] (500 nM) was 0.832 ± 0.062; in test [1] (1000 nM) it was 0.793 ± 0.051; with BMN-673 (0.5 nM), 0.995 ± 0.028; in the test with BMN-673 (1 nM) it was 0.968 ± 0.019; in the test with BMN-673 (5 nM), 0.744 ± 0.079; in the test with BMN-673 (10 nM), 0.655 ± 0.046. Also, the surviving fraction with BMN-673 (50 nM) came out at 0.422 ± 0.035; with BMN-673 (100 nM), 0.332 ± 0.051; with BMN-673 (500 nM), 0.19 ± 0.015; with BMN-673 (1000 nM), 0.172 ± 0.023.

Regarding HSSYII SYNOVIAL, the surviving fraction was found to be 0.917 ± 0.021 in test [1] (0.5 nM); 0.933 ± 0.033 in test [1] (1 nM); 1.01 ± 0.047 in test [1] (5 nM); 0.951 ± 0.045 in test [1] (10 nM); 0.915 ± 0.043 in test [1] (50 nM); 0.958 ± 0.037 in test [1] (100 nM). The surviving fraction in test [1] (500 nM) came to 0.899 ± 0.034; in test [1] (1000 nM), 0.798 ± 0.021; with BMN-673 (0.5 nM), 0.867 ± 0.022; with BMN-673 (1 nM), 0.819 ± 0.015; with BMN-673 (5 nM), 0.506 ± 0.026; with BMN-673 (10 nM), 0.34 ± 0.017. For the same test system, the surviving fraction came to 0.19 ± 0.0066 with BMN-673 (50 nM), 0.132 ± 0.011 with BMN-673 (100 nM), 0.0702 ± 0.0064 with BMN-673 (500 nM) and 0.06017 ± 0.00029 in the test with BMN-673 (1000 nM).

On to HUO3N1 BONE, for which the surviving fraction amounted to 0.94 ± 0.044 in test [1] (0.5 nM); 0.986 ± 0.032 in test [1] (1 nM); 1 ± 0.028 in test [1] (5 nM); 1.05 ± 0.06 in test [1] (10 nM); 1.01 ± 0.011 in test [1] (50 nM); 0.995 ± 0.052 in test [1] (100 nM). Moreover, the surviving fraction came to 0.947 ± 0.031 in test [1] (500 nM); 0.908 ± 0.024 in test [1] (1000 nM); 0.991 ± 0.023 with BMN-673 (0.5 nM); 0.998 ± 0.043 with BMN-673 (1 nM); 0.945 ± 0.038 with BMN-673 (5 nM); 0.9 ± 0.014 with BMN-673 (10 nM). Further, the surviving fraction in the test with BMN-673 (50 nM) is 0.8017 ± 0.0063; in the test with BMN-673 (100 nM), 0.658 ± 0.015; in the test with BMN-673 (500 nM) it was 0.448 ± 0.03; with BMN-673 (1000 nM) it was 0.357 ± 0.021.

As for ZR751 BREAST, the surviving fraction in test [1] (0.5 nM) was determined as 0.886 ± 0.14; in test [1] (1 nM) it was 0.98 ± 0.062; in test [1] (5 nM), 0.876 ± 0.11; in test [1] (10 nM), 0.935 ± 0.1; in test [1] (50 nM), 0.87 ± 0.07; in test [1] (100 nM) it was 0.895 ± 0.12. Also, the surviving fraction in test [1] (500 nM) was found to be 0.928 ± 0.094; in test [1] (1000 nM), 0.954 ± 0.093; with BMN-673 (0.5 nM) it was 1.23 ± 0.14; in the test with BMN-673 (1 nM) it was 1.14 ± 0.15; in the test with BMN-673 (5 nM), 1.04 ± 0.22; with BMN-673 (10 nM), 1 ± 0.15. Also, the surviving fraction in the test with BMN-673 (50 nM) was found to be 1.01 ± 0.068; in the test with BMN-673 (100 nM), 0.974 ± 0.11; with BMN-673 (500 nM) it was 1.04 ± 0.07; with BMN-673 (1000 nM) it was 0.816 ± 0.017.

BT20 BREAST: the surviving fraction was 1.06 ± 0.11 in test [1] (0.5 nM); 1.01 ± 0.086 in test [1] (1 nM); 1.09 ± 0.018 in test [1] (5 nM); 1.13 ± 0.14 in test [1] (10 nM); 0.932 ± 0.068 in test [1] (50 nM); 0.941 ± 0.036 in test [1] (100 nM). Moreover, the surviving fraction in test [1] (500 nM) turned out to be 0.825 ± 0.074; in test [1] (1000 nM), 0.707 ± 0.029; with BMN-673 (0.5 nM), 1.22 ± 0.014; with BMN-673 (1 nM) it was 1.15 ± 0.11; in the test with BMN-673 (5 nM), 1.04 ± 0.034; with BMN-673 (10 nM), 0.971 ± 0.052. For the same test system, the surviving fraction came to 0.88 ± 0.035 in the test with BMN-673 (50 nM), 0.797 ± 0.074 with BMN-673 (100 nM), 0.673 ± 0.13 in the test with BMN-673 (500 nM) and 0.474 ± 0.08 with BMN-673 (1000 nM).
